What was measured:
BT-474 [1] = conditions: 72 h
Outline: (§1)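 In this assay, breast cancer cell lines spent 72 h with compound at 5 concentrations in 10-fold steps over a compound-specific 10,000-fold range. The first readout was cell death by CellTox Green fluorescence, and the second was viability by CellTiter-Glo luminescence, each normalised per plate to 0.1 % DMSO and a positive kill control. EC50 came from the dose-response curves, censored at the top concentration.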

BT-549 = conditions: 72 h
Outline: as §1

CAL-51 [2] = conditions: 72 h
Outline: as §1

CAL-85-1 [3] = conditions: 72 h
Outline: as §1

HCC1937 [4] = conditions: 72 h
Outline: as §1

MCF-10A = conditions: 72 h
Outline: as §1

MDA-MB-231 [5] = conditions: 72 h
Outline: as §1

MDA-MB-436 [6] = conditions: 72 h
Outline: as §1

MDA-MB-453 [7] = conditions: 72 h
Outline: as §1

MDA-MB-468 [8] = conditions: 72 h
Outline: as §1

SK-BR-3 = conditions: 72 h
Outline: as §1

BT-474 [9] = assay: normalised viability (% of control), CellTiter-Blue; higher = more viable cells (about 100 = DMSO control); conditions: 10000 nM; incubation time: 72 h
Outline: (§2)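 Plates were quality-checked by Z'-factor and normalised to vehicle (100) and a positive kill control (0). The underlying assay incubated breast cancer cell lines for 72 h on 384-well plates with compound, then added 2.5 µl CellTiter-Blue for 2 h at 37 °C and read at 560/590 nm. The value is normalised viability at a single listed concentration of the series.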

CAL-120 = assay: as above; conditions: 10000 nM; incubation time: 72 h
Outline: as §2

CAL-51 [10] = assay: as above; conditions: 100 nM; incubation time: 72 h
Outline: as §2

CAL-85-1 [11] = assay: as above; conditions: 100 nM; incubation time: 72 h
Outline: as §2

HCC1599 [12] = assay: as above; conditions: 10000 nM; incubation time: 72 h
Outline: as §2

HCC1937 [13] = assay: as above; conditions: 10000 nM; incubation time: 72 h
Outline: as §2

Hs578T = assay: as above; conditions: 10000 nM; incubation time: 72 h
Outline: as §2

MDA-MB-436 [14] = assay: as above; conditions: 10000 nM; incubation time: 72 h
Outline: as §2

MDA-MB-453 [15] = assay: as above; conditions: 100 nM; incubation time: 72 h
Outline: as §2

MDA-MB-468 [16] = assay: as above; conditions: 10000 nM; incubation time: 72 h
Outline: as §2

BT-474 [17] = assay: normalised viability (% of control), CellTiter-Blue; higher = more viable cells (about 100 = DMSO control); conditions: 100 nM; incubation time: 72 h
Description: (§3)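 DSRT, CellTiter-Blue viability, 72 h incubation. Signal is normalised to DMSO and benzethonium chloride controls. Value is the normalised response at dose 3.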

CAL-51 [18] = assay: as above; conditions: 10 nM; incubation time: 72 h
Description: as §3

DU-4475 [19] = assay: as above; conditions: 10 nM; incubation time: 72 h
Description: as §3

HCC1143 = assay: as above; conditions: 100 nM; incubation time: 72 h
Description: as §3

HCC1599 [20] = assay: as above; conditions: 100 nM; incubation time: 72 h
Description: as §3

HCC1937 [21] = assay: as above; conditions: 100 nM; incubation time: 72 h
Description: as §3

HDQ-P1 [22] = assay: as above; conditions: 10 nM; incubation time: 72 h
Description: as §3

MDA-MB-231 [23] = assay: as above; conditions: 100 nM; incubation time: 72 h
Description: as §3

MDA-MB-468 [24] = assay: as above; conditions: 100 nM; incubation time: 72 h
Description: as §3

CAL-148 = assay: as above; conditions: 300 nM; incubation time: 72 h
Description: (§4)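 DSRT, CellTiter-Blue viability, 72 h incubation. Signal is normalised to DMSO and benzethonium chloride controls. Value is the normalised response at dose 6.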

CAL-51 [25] = assay: as above; conditions: 300 nM; incubation time: 72 h
Description: as §4

CAL-85-1 [26] = assay: as above; conditions: 300 nM; incubation time: 72 h
Description: as §4

DU-4475 [27] = assay: as above; conditions: 300 nM; incubation time: 72 h
Description: as §4

HDQ-P1 [28] = assay: as above; conditions: 300 nM; incubation time: 72 h
Description: as §4

MDA-MB-453 [29] = assay: as above; conditions: 300 nM; incubation time: 72 h
Description: as §4

For `CN(C)C[C@@H]1CCn2cc(c3ccccc32)C2=C(C(=O)NC2=O)c2cn(c3ccccc23)CCO1` [Ruboxistaurin], the “EC50, CellTiter-Glo” value (BT-474 [1]) was 2.39 µM, the “EC50, CellTiter-Glo” value (BT-549) was 2.46 µM and the “EC50, CellTiter-Glo” value (CAL-51 [2]) was 2.77 µM. For the same molecule, the “EC50, CellTiter-Glo” value (CAL-85-1 [3]) was 3.47 µM, the “EC50, CellTiter-Glo” value (HCC1937 [4]) was 6.18 µM and the “EC50, CellTiter-Glo” value (MCF-10A) was 7.23 µM. The “EC50, CellTiter-Glo” value (MDA-MB-231 [5]) was 2.59 µM, the “EC50, CellTiter-Glo” value (MDA-MB-436 [6]) was 2.67 µM and the “EC50, CellTiter-Glo” value (MDA-MB-453 [7]) was 2.92 µM. For the same molecule, the “EC50, CellTiter-Glo” value (MDA-MB-468 [8]) was 1.7 µM, the “EC50, CellTiter-Glo” value (SK-BR-3) was 2.16 µM and the normalised viability (BT-474 [9]) was 3.5%. The normalised viability (CAL-120) was 38.9%, the normalised viability (CAL-51 [10]) was 88.8% and the normalised viability (CAL-85-1 [11]) was 115%. The normalised viability (HCC1599 [12]) was 58.1%, the normalised viability (HCC1937 [13]) was 35.1% and the normalised viability (Hs578T) was 42.9%. The normalised viability (MDA-MB-436 [14]) was 29.2%, the normalised viability (MDA-MB-453 [15]) was 93% and the normalised viability (MDA-MB-468 [16]) was 8.88%. For the same molecule, the normalised viability (BT-474 [17]) was 98.7%, the normalised viability (CAL-51 [18]) was 91.8% and the normalised viability (DU-4475 [19]) was 101%. For the same molecule, the normalised viability (HCC1143) was 128%, the normalised viability (HCC1599 [20]) was 111% and the normalised viability (HCC1937 [21]) was 85.3%. The normalised viability (HDQ-P1 [22]) was 82.6%, the normalised viability (MDA-MB-231 [23]) was 95.8% and the normalised viability (MDA-MB-468 [24]) was 90.1%. The normalised viability (CAL-148) was 99%, the normalised viability (CAL-51 [25]) was 91% and the normalised viability (CAL-85-1 [26]) was 106%. For the same molecule, the normalised viability (DU-4475 [27]) was 82.2%, the normalised viability (HDQ-P1 [28]) was 48.4% and the normalised viability (MDA-MB-453 [29]) was 104%.

Reference: the supplement of paper PMC4862054
